# From ChEMBL document CHEMBL1201862, “PubChem BioAssay data set” (2004)
# The source made the active and inactive calls.
# Tests used:
# [1] = molecular target: Polyadenylate-binding protein 1 (Homo sapiens, UniProt P11940); assay: PABP poly(A) RNA binding inhibitors, primary screen, biochemical, fluorescence polarization, uHTS (AID 2014)
# [2] = molecular target: Eukaryotic translation initiation factor 4H (Homo sapiens, UniProt Q15056); assay: human eIF4H binding inhibitors, primary screen, translation initiation inhibitor project, biochemical, uHTS, fluorescence polarization (AID 2012)
# [3] = molecular target: Cyclin-dependent kinase 5/CDK5 activator 1 (Homo sapiens, UniProt Q00535); assay: CDK5/p35 kinase inhibitors, dose response, biochemical, cherry-picked samples, set 2 (AID 504545)
# Chain of Cyclin-dependent kinase 5/CDK5 activator 1 (Q00535 whole entry): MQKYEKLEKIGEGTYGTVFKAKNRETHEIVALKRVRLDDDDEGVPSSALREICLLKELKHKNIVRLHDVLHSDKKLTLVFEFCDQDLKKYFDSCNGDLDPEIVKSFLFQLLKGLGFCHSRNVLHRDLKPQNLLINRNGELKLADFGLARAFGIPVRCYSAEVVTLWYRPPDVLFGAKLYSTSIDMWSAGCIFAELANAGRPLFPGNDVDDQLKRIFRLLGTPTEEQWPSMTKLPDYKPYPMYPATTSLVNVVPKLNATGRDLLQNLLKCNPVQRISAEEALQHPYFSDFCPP
# Chain of Cyclin-dependent kinase 5/CDK5 activator 1 (Q15078 whole entry, further chain): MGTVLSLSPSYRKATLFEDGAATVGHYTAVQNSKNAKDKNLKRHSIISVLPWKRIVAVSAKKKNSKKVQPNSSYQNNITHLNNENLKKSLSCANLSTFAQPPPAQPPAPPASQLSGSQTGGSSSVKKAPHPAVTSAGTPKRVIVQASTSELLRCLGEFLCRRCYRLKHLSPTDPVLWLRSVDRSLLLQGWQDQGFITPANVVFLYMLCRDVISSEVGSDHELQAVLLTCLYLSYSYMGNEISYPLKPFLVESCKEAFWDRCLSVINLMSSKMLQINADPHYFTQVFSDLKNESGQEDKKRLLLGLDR
# Aspartyl aminopeptidase = Aspartyl aminopeptidase (Plasmodium falciparum 3D7, UniProt Q8I2J3)
# Chain of Aspartyl aminopeptidase (Q8I2J3 whole entry): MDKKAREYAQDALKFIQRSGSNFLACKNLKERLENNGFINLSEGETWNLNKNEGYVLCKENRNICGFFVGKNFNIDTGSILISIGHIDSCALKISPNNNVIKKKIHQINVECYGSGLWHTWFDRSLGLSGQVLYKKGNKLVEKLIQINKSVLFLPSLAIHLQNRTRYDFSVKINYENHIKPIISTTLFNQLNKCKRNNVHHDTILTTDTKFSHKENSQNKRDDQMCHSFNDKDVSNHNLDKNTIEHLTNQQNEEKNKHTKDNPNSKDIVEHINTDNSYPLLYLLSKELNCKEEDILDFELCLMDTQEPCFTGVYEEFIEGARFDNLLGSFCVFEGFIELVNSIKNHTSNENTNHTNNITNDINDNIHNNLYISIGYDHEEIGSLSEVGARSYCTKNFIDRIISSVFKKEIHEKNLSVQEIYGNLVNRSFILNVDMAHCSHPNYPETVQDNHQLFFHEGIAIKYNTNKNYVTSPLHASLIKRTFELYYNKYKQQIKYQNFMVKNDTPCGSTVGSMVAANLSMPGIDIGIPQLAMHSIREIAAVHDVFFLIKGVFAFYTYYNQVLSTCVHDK
# Procathepsin L = Procathepsin L (Homo sapiens, UniProt P07711)
# Chain of Procathepsin L (P07711 whole entry): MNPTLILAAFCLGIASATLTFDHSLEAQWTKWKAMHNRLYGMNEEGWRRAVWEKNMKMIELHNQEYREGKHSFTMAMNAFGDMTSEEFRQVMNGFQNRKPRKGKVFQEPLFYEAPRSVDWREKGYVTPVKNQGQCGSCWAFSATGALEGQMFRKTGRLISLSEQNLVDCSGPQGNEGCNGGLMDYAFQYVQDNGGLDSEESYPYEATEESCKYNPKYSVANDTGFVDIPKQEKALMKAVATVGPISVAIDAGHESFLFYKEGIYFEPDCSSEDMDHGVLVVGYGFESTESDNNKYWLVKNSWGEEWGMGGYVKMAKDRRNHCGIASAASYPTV
# [4] = molecular target: Alkaline phosphatase, placental type (Homo sapiens, UniProt P05187); assay: PLAP enzyme inhibitors, confirmation, biochemical, luminescence (AID 1512); format: functional
# Chain of Alkaline phosphatase, placental type (P05187 whole entry): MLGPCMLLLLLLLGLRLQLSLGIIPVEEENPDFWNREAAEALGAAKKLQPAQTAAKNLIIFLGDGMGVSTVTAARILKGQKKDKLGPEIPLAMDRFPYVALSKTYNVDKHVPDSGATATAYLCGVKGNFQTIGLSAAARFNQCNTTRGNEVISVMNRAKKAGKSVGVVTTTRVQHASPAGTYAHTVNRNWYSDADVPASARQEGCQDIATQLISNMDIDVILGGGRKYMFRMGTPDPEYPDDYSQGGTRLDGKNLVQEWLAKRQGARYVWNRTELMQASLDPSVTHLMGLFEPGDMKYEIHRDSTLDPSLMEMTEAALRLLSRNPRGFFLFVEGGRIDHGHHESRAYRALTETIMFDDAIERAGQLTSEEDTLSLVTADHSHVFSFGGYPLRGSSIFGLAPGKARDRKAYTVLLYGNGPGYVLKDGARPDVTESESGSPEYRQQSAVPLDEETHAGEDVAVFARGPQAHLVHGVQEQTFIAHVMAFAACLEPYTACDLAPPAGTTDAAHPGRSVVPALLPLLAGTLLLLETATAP
# [5] = Luminescence Cell-Based Dose Retest to Confirm Inhibitors of Cancer Stem Cells. [Related pubchem assays (depositor defined):AID2717, AID2721]; format: functional; conditions: Homo sapiens
# Insulin-degrading enzyme = molecular target: T1, Insulin-degrading enzyme (Homo sapiens, UniProt P14735); assay: Dose Response: Fluorescence polarization-based cell-based high throughput dose response assay for inhibitors of insulin-degrading enzyme (IDE). [Related pubchem assays: 434962 (Primary screen (IDE inhibitors in singlicate)), 449730 (Counterscreen (Cytotoxicity in triplicate)), 435028 (Confirmation (IDE inhibitors in triplicate)), 434984 (Summary …; format: functional
# T1 sequence (P14735 whole entry): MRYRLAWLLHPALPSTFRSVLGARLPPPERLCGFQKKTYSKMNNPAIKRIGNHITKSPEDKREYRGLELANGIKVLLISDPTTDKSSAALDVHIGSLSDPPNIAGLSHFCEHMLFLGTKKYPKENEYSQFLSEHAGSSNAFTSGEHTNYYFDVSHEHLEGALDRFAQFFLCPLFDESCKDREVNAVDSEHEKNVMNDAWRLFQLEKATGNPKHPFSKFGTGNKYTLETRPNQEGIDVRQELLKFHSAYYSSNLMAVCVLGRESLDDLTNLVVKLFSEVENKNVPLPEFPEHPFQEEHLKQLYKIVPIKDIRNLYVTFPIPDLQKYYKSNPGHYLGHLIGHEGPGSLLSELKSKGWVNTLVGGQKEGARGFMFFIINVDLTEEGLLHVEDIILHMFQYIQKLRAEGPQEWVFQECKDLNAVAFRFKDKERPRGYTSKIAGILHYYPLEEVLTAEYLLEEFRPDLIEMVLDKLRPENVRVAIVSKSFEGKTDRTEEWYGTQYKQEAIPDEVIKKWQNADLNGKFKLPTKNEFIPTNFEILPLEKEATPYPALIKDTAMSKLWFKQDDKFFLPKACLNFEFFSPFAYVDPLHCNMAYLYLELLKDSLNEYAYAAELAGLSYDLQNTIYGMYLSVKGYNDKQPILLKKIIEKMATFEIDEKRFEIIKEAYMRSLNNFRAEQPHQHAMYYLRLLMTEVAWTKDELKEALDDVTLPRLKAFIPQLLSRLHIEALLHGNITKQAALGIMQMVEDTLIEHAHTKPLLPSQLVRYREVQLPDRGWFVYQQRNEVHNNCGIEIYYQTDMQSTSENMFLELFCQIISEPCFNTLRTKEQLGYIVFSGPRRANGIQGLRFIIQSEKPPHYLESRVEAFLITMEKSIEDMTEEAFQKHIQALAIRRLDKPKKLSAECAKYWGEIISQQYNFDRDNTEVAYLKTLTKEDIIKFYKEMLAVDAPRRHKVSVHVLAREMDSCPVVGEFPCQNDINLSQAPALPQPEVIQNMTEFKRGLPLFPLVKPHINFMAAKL
# [6] = Counterscreen for IDE inhibitors: Luminescence-based cell-based high throughput dose response assay to identify compounds that are cytotoxic to HEK cells. [Related pubchem assays: 434962 (Primary screen (IDE inhibitors in singlicate)), 449730 (Counterscreen (Cytotoxicity in triplicate)), 435028 (Confirmation (IDE inhibitors in triplicate)) …; format: functional; conditions: HEK293
# [7] = molecular target: Lysosomal acid glucosylceramidase (Homo sapiens, UniProt P04062); assay: Dose response cell-based high throughput screening assay to identify enhancers of beta-glucosidase activity. [Related pubchem assays: 784 ]; format: functional
# Chain of Lysosomal acid glucosylceramidase (P04062 whole entry): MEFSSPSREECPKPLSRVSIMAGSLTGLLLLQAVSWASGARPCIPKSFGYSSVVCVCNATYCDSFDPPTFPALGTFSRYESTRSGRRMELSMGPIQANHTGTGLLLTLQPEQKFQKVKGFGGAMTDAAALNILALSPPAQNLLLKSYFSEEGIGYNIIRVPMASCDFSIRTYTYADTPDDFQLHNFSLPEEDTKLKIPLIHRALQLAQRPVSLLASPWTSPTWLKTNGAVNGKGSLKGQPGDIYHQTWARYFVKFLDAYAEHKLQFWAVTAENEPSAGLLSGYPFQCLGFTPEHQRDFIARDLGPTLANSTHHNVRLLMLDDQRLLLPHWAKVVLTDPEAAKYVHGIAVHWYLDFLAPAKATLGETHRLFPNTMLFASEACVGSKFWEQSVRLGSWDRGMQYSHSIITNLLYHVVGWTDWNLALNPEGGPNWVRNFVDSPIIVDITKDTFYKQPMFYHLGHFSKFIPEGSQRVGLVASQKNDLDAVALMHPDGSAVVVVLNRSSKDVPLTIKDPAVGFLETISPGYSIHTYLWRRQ
# [8] = molecular target: T2, Eukaryotic translation initiation factor 2-alpha kinase 3 (Homo sapiens, UniProt Q9NZJ5); assay: Dose response cell-based high-throughput screening assay to measure PERK inhibition. [Related pubchem assays: 1416 ]; format: functional
# T2 sequence (Q9NZJ5 whole entry): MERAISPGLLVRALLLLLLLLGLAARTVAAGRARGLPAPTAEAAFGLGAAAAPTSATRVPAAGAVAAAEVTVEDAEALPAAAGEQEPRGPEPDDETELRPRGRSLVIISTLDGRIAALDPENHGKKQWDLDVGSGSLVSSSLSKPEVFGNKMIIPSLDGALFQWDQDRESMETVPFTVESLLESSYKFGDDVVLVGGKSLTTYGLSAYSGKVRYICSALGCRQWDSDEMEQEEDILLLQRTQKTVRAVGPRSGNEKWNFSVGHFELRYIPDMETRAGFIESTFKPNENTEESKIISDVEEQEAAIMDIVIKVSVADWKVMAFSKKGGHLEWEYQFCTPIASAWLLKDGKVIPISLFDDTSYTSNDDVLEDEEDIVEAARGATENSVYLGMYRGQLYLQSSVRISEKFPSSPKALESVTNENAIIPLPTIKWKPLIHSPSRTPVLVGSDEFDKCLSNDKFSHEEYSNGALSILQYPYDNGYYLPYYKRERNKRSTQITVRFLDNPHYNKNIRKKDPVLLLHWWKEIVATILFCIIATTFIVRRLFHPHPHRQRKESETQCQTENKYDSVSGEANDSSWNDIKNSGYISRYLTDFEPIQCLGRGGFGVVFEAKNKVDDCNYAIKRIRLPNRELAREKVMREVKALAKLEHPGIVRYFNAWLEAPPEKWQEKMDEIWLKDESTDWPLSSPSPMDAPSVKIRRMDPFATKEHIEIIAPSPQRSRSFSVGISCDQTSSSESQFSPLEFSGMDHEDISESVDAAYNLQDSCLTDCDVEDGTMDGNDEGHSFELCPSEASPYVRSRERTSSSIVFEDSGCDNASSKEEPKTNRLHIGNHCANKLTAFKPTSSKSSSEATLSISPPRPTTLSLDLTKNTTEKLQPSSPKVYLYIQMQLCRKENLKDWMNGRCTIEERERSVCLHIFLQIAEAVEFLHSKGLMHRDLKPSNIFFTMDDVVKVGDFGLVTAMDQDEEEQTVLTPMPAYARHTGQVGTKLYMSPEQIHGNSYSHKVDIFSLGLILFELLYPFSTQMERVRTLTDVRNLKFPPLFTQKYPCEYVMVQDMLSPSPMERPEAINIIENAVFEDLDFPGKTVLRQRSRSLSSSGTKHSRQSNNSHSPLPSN
# [9] = molecular target: T2, Eukaryotic translation initiation factor 2-alpha kinase 3; assay: Counterscreen assay for PERK inhibitors: Dose response cell-based high throughput screening assay to measure inhibition of PERK at 6 hours. [Related pubchem assays: 1522, 1416 ]; format: functional
# [10] = molecular target: Metabotropic glutamate receptor 4 (Rattus norvegicus, UniProt P31423); assay: Modulation of the Metabotropic Glutamate Receptor mGluR4: Rat PAM Potency. [Related pubchem assays (depositor defined):AID2437, AID2807]; format: functional
# Chain of Metabotropic glutamate receptor 4 (P31423 whole entry): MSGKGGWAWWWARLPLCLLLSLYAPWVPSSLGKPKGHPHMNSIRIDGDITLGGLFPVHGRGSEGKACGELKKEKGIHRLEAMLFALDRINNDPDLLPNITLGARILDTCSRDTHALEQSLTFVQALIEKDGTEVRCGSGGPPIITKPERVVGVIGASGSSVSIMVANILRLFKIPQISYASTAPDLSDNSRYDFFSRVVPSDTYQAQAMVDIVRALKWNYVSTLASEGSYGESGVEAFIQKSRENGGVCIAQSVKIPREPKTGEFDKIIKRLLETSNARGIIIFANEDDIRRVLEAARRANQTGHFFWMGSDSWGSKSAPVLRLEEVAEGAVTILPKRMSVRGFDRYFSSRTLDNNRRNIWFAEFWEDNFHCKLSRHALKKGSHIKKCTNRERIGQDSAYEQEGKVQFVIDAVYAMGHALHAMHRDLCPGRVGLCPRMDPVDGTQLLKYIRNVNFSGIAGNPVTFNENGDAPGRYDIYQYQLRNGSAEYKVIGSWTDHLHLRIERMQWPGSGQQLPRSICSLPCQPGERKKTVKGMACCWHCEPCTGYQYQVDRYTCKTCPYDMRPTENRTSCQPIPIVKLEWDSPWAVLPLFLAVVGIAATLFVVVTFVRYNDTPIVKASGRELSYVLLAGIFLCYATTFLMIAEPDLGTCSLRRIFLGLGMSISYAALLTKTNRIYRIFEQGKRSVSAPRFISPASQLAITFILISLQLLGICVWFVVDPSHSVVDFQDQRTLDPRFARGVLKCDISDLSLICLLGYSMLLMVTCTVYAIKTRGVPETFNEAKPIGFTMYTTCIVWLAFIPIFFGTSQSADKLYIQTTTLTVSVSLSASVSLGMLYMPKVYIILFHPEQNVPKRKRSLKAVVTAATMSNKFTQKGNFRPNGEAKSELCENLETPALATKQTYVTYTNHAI
compound,measurement,setting,value
O=C(COC(=O)CCC(=O)c1ccc(Cl)cc1)NCc1ccco1,IC50,[1],26.7 µM (active)
same,IC50,[2],11.1 µM (active)
Cc1nn(-c2ccc(Cl)cn2)c2c1C(=O)CC(C)(C)C2Br (stereo not drawn),AC50,[3],89.2 µM (active)
COCCNC(=O)NC1(C(F)(F)F)Oc2ccc(Cl)cc2O1 (stereo not drawn),IC50,Aspartyl aminopeptidase,2.12 µM (active)
same,IC50,Procathepsin L,> 59.6 µM (not active)
same,IC50,[4],6.75 µM (active)
same,AC50,[5],6.47 µM (active)
O=C(NCCC1=CCCCC1)Nc1ccc2nsnc2c1,IC50,Insulin-degrading enzyme,> 56 µM (not active)
same,IC50,[6],23.8 µM (not active)
CCOc1ccc(S(=O)(=O)NCC2CCCO2)c2cccnc12 (stereo not drawn),EC50,[7],> 10 µM (not active)
COc1cc(C(C#N)N2CCOCC2)ccc1O (stereo not drawn),EC50,[8],> 55.7 µM (not active)
same,EC50,[9],> 55.7 µM (not active)
CC1(C)[C@@H]2C(=O)N(c3ccc(NC(=O)c4ccccn4)cc3Cl)C(=O)[C@@H]21,EC50,[10],0.69 µM (active)
